Experimental data published in BindingDB's records for doi:10.1021/jm010801s (2002).

Target: Cathepsin K (Oryctolagus cuniculus) (UniProt P43236)
Experiment: Inhibition of recombinant rabbit Cathepsin K in a fluorescence assay

Sequence of Cathepsin K (Oryctolagus cuniculus) (P43236 whole entry, looked up): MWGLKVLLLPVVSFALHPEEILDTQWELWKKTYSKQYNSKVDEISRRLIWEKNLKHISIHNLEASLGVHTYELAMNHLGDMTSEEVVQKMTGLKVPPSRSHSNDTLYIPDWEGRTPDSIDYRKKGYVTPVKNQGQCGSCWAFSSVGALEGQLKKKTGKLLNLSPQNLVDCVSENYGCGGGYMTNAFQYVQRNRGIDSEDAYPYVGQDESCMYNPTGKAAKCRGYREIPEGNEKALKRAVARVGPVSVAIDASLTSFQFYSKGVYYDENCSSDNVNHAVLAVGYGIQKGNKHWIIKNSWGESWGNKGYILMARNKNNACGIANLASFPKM

Row | Compound | IC50 [nM]
1 | Cc1ccc(NCCNC(=O)[C@H](CC(C)C)NC(=O)OCc2ccccc2)cc1 [[3-Methyl-1-(2-p-tolylamino-ethylcarbamoyl)-butyl]-carbamic acid benzyl ester] | 190
2 | CC(C)C[C@H](NC(=O)OCc1ccccc1)C(=O)NCCNc1ccccc1 [[3-Methyl-1-(2-phenylamino-ethylcarbamoyl)-butyl]-carbamic acid benzyl ester] | 470
3 | CC(C)C[C@H](NC(=O)OCc1ccccc1)C(=O)NCCNc1ccc(Cl)cc1 [{1-[2-(4-Chloro-phenylamino)-ethylcarbamoyl]-3-methyl-butyl}-carbamic acid benzyl ester] | 350

Continued, values first:

Row | IC50 [nM] | Compound
4 | 460 | Cc1cccc(NCCNC(=O)[C@H](CC(C)C)NC(=O)OCc2ccccc2)c1 [[3-Methyl-1-(2-m-tolylamino-ethylcarbamoyl)-butyl]-carbamic acid benzyl ester]
5 | > 1000 | CC(C)C[C@H](NC(=O)OCc1ccccc1)C(=O)NCCNc1cccc(Cl)c1 [{1-[2-(3-Chloro-phenylamino)-ethylcarbamoyl]-3-methyl-butyl}-carbamic acid benzyl ester]
6 | > 1000 | COc1cccc(NCCNC(=O)[C@H](CC(C)C)NC(=O)OCc2ccccc2)c1 [{1-[2-(3-Methoxy-phenylamino)-ethylcarbamoyl]-3-methyl-butyl}-carbamic acid benzyl ester]
